For one data set, the target named is T1, Cathepsin-B (Homo sapiens, UniProt P07858).
T1 construct: purchased Sigma-Aldrich C0150
The data set can be described thus: Cathepsin-B counterscreen assay. In kind it is biochemical. The settings on record: read-out: % inhibition at 10 µM Cathepsin-B; compound 10 µM. As to the method:
(§1) Screening of compounds was carried out at two different concentrations (1 and 10 μM). Selected compounds were subjected to dose response determination in semi-log concentration (serial threefold dilutions) at constant DMSO concentration of 1% with highest compound concentration at 100 μM. Counterscreening against some of proteases, permeability, and CYP450 inhibition studies was carried out for few selected compounds at 10 μM concentration.
(§2) Thrombin assay reaction mixture (100 μl) contained 140 ng of enzyme and 100 μM of substrate (Boc-Glu-Ala-Arg-AMC) in Tris–HCl buffer pH 8.5. Cathepsin-B assay buffer contained 50 mM MES, 0.01% CHAPS, 100 μM of substrate (Z-Phe-Arg-AMC HCl), and 0.1 U of enzyme. […] The enzyme activities were monitored (ex/em 355/460) as a time-course measurement of the increase in fluorescence signal from fluorescently labeled peptide substrate for 120 min at room temperature. Percent inhibition calculation was calculated using following equation:
(§3) Percent inhibition=100−[RFU in test wells/RFU in basal control wells×100]

For the next data set, the target named is T2, Thrombin (Homo sapiens, UniProt P00734).
T2 construct: purchased Enzyme Research Laboratories HT1002a
The data set can be described thus: Thrombin counterscreen assay. Type of data set: biochemical. As to conditions: read-out: % inhibition at 10 µM Thrombin; compound 10 µM. On the procedure: as §1, §2, §3
(Counterscreens check selectivity or assay interference.)

The next data set can be described thus: Microsomal stability. Type of data set: in vitro ADME. The settings on record: mouse liver microsomes, 1 µM, NADPH and UDPGA. As to the method: Mouse liver microsomes (in-house prepared) and pooled human liver microsomes (BD Gentest, CA, USA) were incubated with 1-μM test compounds at 37°C for 15 and 60 min using NADPH and UDPGA as co-factors. The reaction was stopped by the addition of cold acetonitrile, precipitated protein was removed, and the supernatants were analyzed.
(In general: Liver microsomes are vesicles of endoplasmic reticulum, rich in cytochrome P450 enzymes.)

The target of the next data set is T3, caspase-1 (Homo sapiens, UniProt P29466).
T3 construct: purchased Enzo Life Sciences, Inc. BML-AK701
T3 sequence (P29466 120-297 limits assumed): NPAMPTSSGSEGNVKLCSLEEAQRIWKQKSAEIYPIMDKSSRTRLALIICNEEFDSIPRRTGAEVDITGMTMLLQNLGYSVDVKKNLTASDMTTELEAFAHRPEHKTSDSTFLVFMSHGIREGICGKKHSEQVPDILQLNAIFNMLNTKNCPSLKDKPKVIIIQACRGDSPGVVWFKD
T3 sequence (P29466 317-404 limits assumed): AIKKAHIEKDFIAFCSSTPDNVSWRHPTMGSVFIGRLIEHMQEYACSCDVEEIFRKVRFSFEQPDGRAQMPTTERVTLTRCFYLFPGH
Description: Caspase-1 counterscreen assay. As to conditions: read-out: % inhibition at 10 µM Caspase-1; compound 10 µM. In kind it is biochemical. As to the method: as §1
The ability of NCEs to inhibit the activity of human recombinant caspases as well as other proteases was determined using a standard fluorometric microplate assay as described in [1, 10]. The assay buffer contained 25 mM sodium HEPES, 50 mM KCl, 0.1% CHAPS, and 1 mM β-mercaptoethanol, pH7.4. To a reaction mixture (100 μL) containing the above buffer, 10 μM AC-DEVD-AMC and 10 U caspase-3 were added in a black 96-well microplate. Activities of the other caspases were determined similarly using the corresponding fluorogenic substrates: 50 U of caspase-1 and 10 μM N-acetyl-Tyr-Val-Ala-Asp-7-amido-4-methylcoumarin.
as §3

Data set [1] is described as follows: In vivo pharmacokinetic experiment in mice. The settings on record: mouse, plasma, male NMRI mice. As to the method:
Pharmacokinetic profiling was carried out using oral and intravenous route (IV) dosing in male NMRI mice. […] The plasma samples were collected at different time points until 8 hr and were stored frozen at −80°C until analysis. Quantitative bio-analysis of the drugs in the plasma samples was done using an LC-MS/MS. Plasma samples were analyzed following protein precipitation of plasma with acetonitrile containing internal standards.
Curve fitting was performed with Prism 5.1 software (GraphPad Software Inc., San Diego, CA) using built-in equation describing corresponding data models. All the other data were mentioned as mean ± standard deviation of triplicates values. PK parameters were determined using WinNonlin 5.2 software.
Compounds were administered to male NMRI mice either as 1 mg/kg intravenous bolus in 1% (v/v) DMA, 10% (w/v) HP-b-CD in normal saline, or orally by gavage at 5 mg/kg in 1% (v/v) DMA, 1% (w/v) Poloxamer 147, and 10% (w/v) HP-b-CD in saline.

Data set [2] has as its system Jurkat (human T-cell leukemia) cell line. Description: Anti-apoptotic assay using Jurkat T-cells (staurosporine-induced cell death, resazurin). Type of data set: cell-based. The settings on record: compound 10 µM, staurosporine 100 nM, 48 h. As to the method: The anti-apototic assay was done as described in [10]. Briefly, Jurkat (human T-cell leukemia) cell line (ATCC) was cultured in RPMI-1640 medium with L-glutamine and supplemented with 10% fetal bovine serum and antibiotic solution. Cells were grown at 37°C in 5% CO2 and 95% air environment at 100% humidity. Cells were plated in 45 μL/well of serum-free medium at 2.5 × 10^5 cells/mL and incubated for 1 h before compound addition. Compound stock solutions were diluted with growth medium and added to the cells to obtain desired concentration. One percent DMSO was used for control wells (without the addition of compounds). […] Cells were further incubated for 120 min, and the fluorescence was measured using the Wallac Victor2V plate reader (PerkinElmer Life Sciences) at 531/589 nm ex/em wavelengths. The percent protection from induced apoptosis was calculated using the following equation: […]
where ΔFl denotes the difference in resazurin fluorescence measured at point 0 and after 120-min incubation with the cells; subscripts t, s, and n are fluorescence in the presence of a test compound + staurosporine, staurosporine alone, and no staurosporine, respectively.
Protection against cellular apoptosis was determined using staurosporine as apoptotic inducer in Jurkat cells (human T-cell leukemia), as described in the ‘Methods’ section. […]
On the technique in general: Resazurin is reduced to fluorescent resorufin, in cell work by metabolically active cells.

Another data set addresses T4, caspase-3 (Homo sapiens, UniProt P42574).
T4 construct: purchased Sigma-Aldrich C1224
T4 sequence (P42574 29-175 limits assumed): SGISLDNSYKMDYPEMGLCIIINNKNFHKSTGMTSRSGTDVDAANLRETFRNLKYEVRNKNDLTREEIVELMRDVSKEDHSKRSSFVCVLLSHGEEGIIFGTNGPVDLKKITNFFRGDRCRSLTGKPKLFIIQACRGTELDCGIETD
T4 sequence (P42574 176-277 limits assumed): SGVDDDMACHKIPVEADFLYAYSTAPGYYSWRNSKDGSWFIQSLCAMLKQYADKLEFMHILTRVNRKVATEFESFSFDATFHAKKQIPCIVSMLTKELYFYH
The data set can be described thus: Caspase-3 fluorometric inhibition assay (AC-DEVD-AMC substrate). In kind it is biochemical. The settings on record: 10 µM AC-DEVD-AMC, 10 U caspase-3. On the procedure: Fluorescence measurements were done using VICTOR2V 96/384 multilabel plate reader (PerkinElmer Life Sciences, MA, USA) at λex = 360 nm and λem = 460 nm top readout (ex, excitation; em, emission) in Corning black 96-well flat bottom plates. The enzyme activity was measured at 30°C after 30 min. Trans-epithelial resistance (TEER) measurements (for monolayer integrity) were made using instrument from World Precision Instrument (Florida, USA). HPLC (1100 series, Agilent Technologies Inc., CA, USA) was performed on reverse phase column (Zorbax Eclipse XDB C18, 150 × 4.6 mm, 5 μm). LC-MS/MS was performed in multiple reaction monitoring mode using Applied Biosystems API 3200 (Chromos, Singapore) coupled to Agilent Technologies 1100 series HPLC on a reverse phase column (Zorbax Eclipse XDB C18, 50 × 4.6 mm, 5 μm).
Screening of compounds was carried out at two different concentrations (1 and 10 μM). […]
The ability of NCEs to inhibit the activity of human recombinant caspases as well as other proteases was determined using a standard fluorometric microplate assay as described in [1, 10]. […] Activities of the other caspases were determined similarly using the corresponding fluorogenic substrates: 50 U of caspase-1 and 10 μM N-acetyl-Tyr-Val-Ala-Asp-7-amido-4-methylcoumarin. […]

Data set [3] in a line: Kinetic aqueous solubility (shake flask, 96-well). The settings on record: pH 7.4, aqueous buffer, kinetic from dmso stock. Type of data set: physicochemical. On the procedure:
After 16 h of incubation, the supernatant was subjected for analysis.

Converted amounts (≈) assume the structure as drawn. Like-named read-outs stand apart in the source and are kept apart here.

Consider `C[C@H](NC(=O)C(=O)Nc1ccccc1C(C)(C)C)C(=O)N[C@@H](CC(=O)O)C(=O)COc1c(F)c(F)cc(F)c1F` [IDN6556], for which the inhibition – broadly, the relative decrease from the control value, in per cent – at 10 µM on Cathepsin-B is 0%; at Thrombin, 7%; at caspase-1, 59%. For the same molecule, the “% stable at 60 min MLM” value in the data set “Microsomal stability” is given as 61%. In addition, the Vd (usually a proportionality between amount in the body and measured concentration, not a real space) in data set [1] (1 mg/kg IV) came to 11.8 L/kg. Also, in data set [1] (1 mg/kg IV), the clearance (in general, the rate of elimination divided by the concentration) is 150 mL/min/kg. Also, the k el in data set [1] (1 mg/kg IV, 5 mg/kg PO) is 0.000194 s⁻¹. In addition, in data set [1] (1 mg/kg IV, 5 mg/kg PO, read-out: Beta t1/2 (converted)), the half-life was 54 min. Moreover, the AUC(0-inf) – broadly, the area under the concentration-time curve extrapolated to infinity – in data set [1] (1 mg/kg IV, read-out: AUC (0-inf) iv) was 111 ng·h/mL; in data set [1] (5 mg/kg PO, read-out: AUC (0-inf) po) it was 99.1 ng·h/mL. Moreover, the Cmax – broadly, the highest concentration seen after dosing – in data set [1] (5 mg/kg PO) was determined as 113 ng/mL. Further, in data set [1] (5 mg/kg PO), the Tmax (commonly the time from dosing to the highest level) was determined as 30 min. Besides, in data set [1] (5 mg/kg PO vs 1 mg/kg IV, read-out: F (oral bioavailability)), the bioavailability (in general, dose-corrected exposure relative to a reference, in per cent) is 17.9%. Moreover, the “% protection against staurosporine-induced cell death” value in data set [2] was 73%. Besides, the IC50 (in general, the concentration that inhibits the measured activity by half) against caspase-3 came to 35 nM. The solubility (usually the dissolved amount per volume that the medium holds) at 16 h in data set [3] stood at 145 µM (≈ 82.6 µg/mL).
